One test deals with interferon (α). Briefly: Cytokine induction in human cells: interferon secreted by PBMCs, ELISA. In kind it is cell-based. As to conditions: PBMC, incubated 18 to 24 hours, interferon determined by ELISA, read-out: Lowest Effective Concentration (μM) Interferon. From the text: (§1) An in vitro human blood cell system was used to assess cytokine induction by compounds of the invention. Activity is based on the measurement of interferon and tumor necrosis factor (α) (IFN and TNF, respectively) secreted into culture media as described by Testerman et. al. In “Cytokine Induction by the Immunomodulators Imiquimod and S-27609”, Journal of Leukocyte Biology, 58, 365-372 (September, 1995).
(§2) Whole blood is collected by venipuncture into EDTA vacutainer tubes from healthy human donors. Peripheral blood mononuclear cells (PBMCs) are separated from whole blood by density gradient centrifugation using Histopaque®-1077 (Sigma Chemicals, St. Louis, Mo.). The PBMCs are suspended at 3-4×10^6 cells/mL in RPMI 1640 medium containing 10% fetal bovine serum, 2 mM L-glutamine and 1% penicillin/streptomycin solution (RPMI complete). The PBMC suspension is added to 48 well flat bottom sterile tissue culture plates (Costar, Cambridge, Mass. or Becton Dickinson Labware, Lincoln Park, N.J.) containing an equal volume of RPMI complete media containing test compound.
(§3) The compounds are solubilized in dimethyl sulfoxide (DMSO). The DMSO concentration should not exceed a final concentration of 1% for addition to the culture wells.
(§4) The solution of test compound is added at 60 μM to the first well containing RPMI complete and serial (three fold or ten fold) dilutions are made. The PBMC suspension is then added to the wells in an equal volume, bringing the test compound concentrations to the desired range. The final concentration of PBMC suspension is 1.5-2×10^6 cells/mL. The plates are covered with sterile plastic lids, mixed gently and then incubated for 18 to 24 hours at 37° C. in a 5% carbon dioxide atmosphere.
(§5) Following incubation the plates are centrifuged for 5-10 minutes at 1000 rpm (˜200×g) at 4° C. The cell culture supernatant is removed with a sterile polypropylene pipet and transferred to sterile polypropylene tubes. Samples are maintained at −30 to −70° C. until analysis. The samples are analyzed for interferon (α) by either ELISA or bioassay and for tumor necrosis factor (α) by ELISA.
Interferon (α) concentration is determined by ELISA using a Human Multi-Species kit from PBL Biomedical Laboratories, New Brunswick, N.J.
(§6) The table below lists the lowest concentration found to induce interferon and the lowest concentration found to induce tumor necrosis factor for each compound. […] Unless otherwise indicated, the interferon biosynthesis was determined by ELISA.

Test [1] concerns tumor necrosis factor (α). Briefly: Cytokine induction in human cells: tumor necrosis factor (α) secreted by PBMCs, ELISA. In kind it is cell-based. The following applies: PBMC, incubated 18 to 24 hours, TNF determined by ELISA, read-out: Lowest Effective Concentration (μM) Tumor Necrosis Factor.
Description: as §1, §2, §3, §4, §5
Tumor necrosis factor (α) (TNF)concentration is determined using ELISA kits available from Genzyme, Cambridge, Mass.; R&D Systems, Minneapolis, Minn.; or Pharmingen, San Diego, Calif.
as §6
(In an ELISA, binding on a coated surface is turned into a signal by an enzyme label.)

Some results are limits rather than exact numbers.

As to `C#CCCC(=O)NCCCCn1cnc2c(N)nc3ccccc3c21` [Example 115], the values for the minimal effective concentration (with interferon (α); in test [1]) were 1.11 µM and 30 µM, respectively.
For `C=CCCC(=O)NCCCCn1cnc2c(N)nc3ccccc3c21` [Example 116], in that order: 0.37 µM and 10 µM.
For the compound `COC(=O)CCCC(=O)NCCCCn1cnc2c(N)nc3ccccc3c21` [Example 117], the minimal effective concentration was 3.33 µM in the test with interferon (α) and > 30 µM in test [1].
The matching figures for `CC(=O)CCCC(=O)NCCCCn1cnc2c(N)nc3ccccc3c21` [Example 118]: 1.11 µM and > 30 µM.
Regarding `C#CCCCCCCCCC(=O)NCCCCn1cnc2c(N)nc3ccccc3c21` [Example 119], the minimal effective concentration (in the test on interferon (α); in test [1]) was > 30 µM throughout.
`COc1ccc(CN(CCCCn2cnc3c(N)nc4ccccc4c32)C(C)=O)cc1` [Example 120]: the figures for the minimal effective concentration (with interferon (α); in test [1]) were 0.37 µM and > 30 µM, respectively.
The matching figures for `CC(=O)N(CCCCn1cnc2c(N)nc3ccccc3c21)Cc1ccc(Br)cc1` [Example 121]: 1.11 µM and > 30 µM.
For `CC(=O)N(CCCCn1cnc2c(N)nc3ccccc3c21)Cc1cc(Br)ccc1O` [Example 122], in that order: 3.33 µM and > 30 µM.
As for `CCCCOc1ccc(CN(CCCCn2cnc3c(N)nc4ccccc4c32)C(C)=O)cc1` [Example 123], the minimal effective concentration in the test on interferon (α) was 3.33 µM; in test [1], > 30 µM.
For `CC(=O)N(CCCCn1cnc2c(N)nc3ccccc3c21)Cc1ccccc1Cl` [Example 124], in that order: 1.11 µM and 3.33 µM.
The matching figures for `CC(=O)N(CCCCn1cnc2c(N)nc3ccccc3c21)Cc1cc([N+](=O)[O-])ccc1Cl` [Example 125]: 1.11 µM and > 30 µM.
For `CC(=O)N(CCCCn1cnc2c(N)nc3ccccc3c21)Cc1cc(Cl)ccc1[N+](=O)[O-]` [Example 126], in that order: 3.33 µM and > 30 µM.
Turning to `CC(=O)N(CCCCn1cnc2c(N)nc3ccccc3c21)Cc1ccccc1Sc1ccc(Cl)cc1` [Example 127], the minimal effective concentration (with interferon (α); in test [1]) was > 30 µM throughout.
As for `CC(=O)N(CCCCn1cnc2c(N)nc3ccccc3c21)Cc1cc(Cl)cc(Cl)c1` [Example 128], the minimal effective concentration was 3.33 µM in the test on interferon (α) and 1.11 µM in test [1].
For `CC(=O)N(CCCCn1cnc2c(N)nc3ccccc3c21)Cc1ccc(F)c(F)c1` [Example 129], in that order: 3.33 µM and > 30 µM.
The matching figures for `COc1ccc(OC)c(CN(CCCCn2cnc3c(N)nc4ccccc4c32)C(C)=O)c1` [Example 130]: 1.11 µM and 10 µM.
For `COc1cccc(CN(CCCCn2cnc3c(N)nc4ccccc4c32)C(C)=O)c1OC` [Example 131], in that order: 3.33 µM and > 30 µM.
For `CC(=O)N(CCCCn1cnc2c(N)nc3ccccc3c21)Cc1ccc(C)cc1C` [Example 132], the minimal effective concentration in the test with interferon (α) was found to be 1.11 µM; in test [1], 3.33 µM.
For `CCc1ccc(CN(CCCCn2cnc3c(N)nc4ccccc4c32)C(C)=O)o1` [Example 133], in that order: 3.33 µM and > 30 µM.
The matching figures for `CC(=O)N(CCCCn1cnc2c(N)nc3ccccc3c21)Cc1ccco1` [Example 134]: 0.37 µM and > 30 µM.
The matching figures for `CC(=O)N(CCCCn1cnc2c(N)nc3ccccc3c21)Cc1ccoc1` [Example 135]: 0.12 µM and > 30 µM.
In the case of `CC(=O)N(CCCCn1cnc2c(N)nc3ccccc3c21)CCCc1ccccc1` [Example 136], the values for the minimal effective concentration (in the test with interferon (α); in test [1]) were 1.11 µM and > 30 µM, respectively.
Regarding `CCCCCCCCN(CCCCn1cnc2c(N)nc3ccccc3c21)C(C)=O` [Example 137], the minimal effective concentration with interferon (α) is 10 µM; in test [1] it was > 30 µM.
The matching figures for `CC(=O)N(CCCCn1cnc2c(N)nc3ccccc3c21)Cc1cccc2ccccc12` [Example 138]: 1.11 µM and > 30 µM.
The matching figures for `COc1ccc2ccccc2c1CN(CCCCn1cnc2c(N)nc3ccccc3c21)C(C)=O` [Example 139]: > 30 µM and > 30 µM.
`CC(=O)N(CCCCn1cnc2c(N)nc3ccccc3c21)Cc1ccc([N+](=O)[O-])cc1` [Example 140]: the minimal effective concentration was 1.11 µM in the test with interferon (α) and > 30 µM in test [1].
For `CC(=O)N(CCCCn1cnc2c(N)nc3ccccc3c21)Cc1ccccc1[N+](=O)[O-]` [Example 141], in that order: 0.37 µM and > 30 µM.
For `CC(=O)N(CCCCn1cnc2c(N)nc3ccccc3c21)Cc1ccncc1` [Example 143], in that order: 0.12 µM and > 30 µM.
For `CC(=O)N(CCCCn1cnc2c(N)nc3ccccc3c21)Cc1ccccc1C` [Example 144], in that order: 1.11 µM and > 30 µM.
Consider `COc1ccc(CN(CCCCn2cnc3c(N)nc4ccccc4c32)C(C)=O)c(OC)c1OC` [Example 145], for which the minimal effective concentration in the test on interferon (α) is 1.11 µM; in test [1], > 30 µM.
Turning to `COc1cc(CN(CCCCn2cnc3c(N)nc4ccccc4c32)C(C)=O)cc(OC)c1OC` [Example 146], the minimal effective concentration in the test on interferon (α) is 3.33 µM; in test [1], > 30 µM.
Turning to `COCCc1nc2c(N)nc3ccccc3c2n1CCCCNC(=O)C=C(C)C` [Example 148], the results for the minimal effective concentration (with interferon (α); in test [1]) were 0.01 µM and 1 µM, respectively.
For `COCCc1nc2c(N)nc3ccccc3c2n1CCCCNC(=O)C1CCCC1` [Example 149], the minimal effective concentration in the test on interferon (α) was 0.001 µM; in test [1], 1 µM.
The matching figures for `COCCc1nc2c(N)nc3ccccc3c2n1CCCCNC(=O)C1CCCCC1` [Example 150]: 0.001 µM and 0.1 µM.
On to `COCCc1nc2c(N)nc3ccccc3c2n1CCCCNC(=O)c1ccccc1C` [Example 151], for which the minimal effective concentration with interferon (α) was 0.0001 µM; in test [1], > 10 µM.
For `COCCc1nc2c(N)nc3ccccc3c2n1CCCCNC(=O)[C@@H]1C[C@H]1c1ccccc1` [Example 153], in that order: 0.0001 µM and 0.1 µM.
For `COCCc1nc2c(N)nc3ccccc3c2n1CCCCNC(=O)c1cccc2ccccc12` [Example 154], in that order: 0.0001 µM and > 10 µM.
For `COCCc1nc2c(N)nc3ccccc3c2n1CCCCNC(=O)c1ccc(C(C)(C)C)cc1` [Example 156], in that order: 0.001 µM and 1 µM.
As to `COCCc1nc2c(N)nc3ccccc3c2n1CCCCNC(=O)c1ccc(OC)c(OC)c1` [Example 158], the values for the minimal effective concentration (with interferon (α); in test [1]) were 0.001 µM and 1 µM, respectively.
For `COCCc1nc2c(N)nc3ccccc3c2n1CCCCNC(=O)CCCCCCC(=O)OC` [Example 159], the minimal effective concentration was found to be 0.01 µM in the test on interferon (α) and 1 µM in test [1].
In the case of `COCCc1nc2c(N)nc3c(c2n1CCCCNC(=O)c1ccccc1)CCCC3` [Example 172], the minimal effective concentration was found to be 0.0001 µM with interferon (α) and 1 µM in test [1].
The matching figures for `COCCc1nc2c(N)nc3c(c2n1CCCCNC(=O)c1ccncc1)CCCC3` [Example 173]: 0.001 µM and 1 µM.
For `COCCc1nc2c(N)nc3c(c2n1CCCCNC(=O)Cc1ccccc1)CCCC3` [Example 174], in that order: 0.001 µM and 1 µM.

The values above are taken from patent US6756382B2, “Amide substituted imidazoquinolines” (3M Innovative Properties Company, priority 1999, dated 2004).
